Assay type in all cases: cell-based
For one assay, the target named is T1, KRAS G12D (Homo sapiens, UniProt P01116, G12D).
T1 construct: AsPc-1-KRAS (G12D)-HiBit-KI cell (Pharmaron); host or cells: AsPc-1-KRAS (G12D)-HiBit-KI cells (HiBiT knock-in at the endogenous KRAS locus)
Put plainly: KRAS G12D HiBit assay. Particulars: AsPc-1-KRAS (G12D)-HiBit-KI cell, compound treatment for 24 hours; for DC50: absolute DC50. Put shortly: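 HiBiT luminescence, detected by adding lytic buffer, substrate and LgBiT protein, served as the KRAS G12D read-out. Compounds, serially diluted 3-fold over 10 points from 0.3 mM DMSO stock, were on cells for 24 h; percent inhibition normalized to cells given 0.1% DMSO only.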
In general terms: HiBiT is a short tag that completes a luciferase, so light tracks the accessible tagged protein.

Another assay addresses T2, KRAS G12V (Homo sapiens, UniProt P01116, G12V).
T2 construct: SW620-KRAS (G12V)-HiBit-KI cell (Pharmaron); host or cells: SW620-KRAS (G12V)-HiBit-KI cells (HiBiT knock-in at the endogenous KRAS locus)
Description: KRAS G12V HiBit assay. Particulars: SW620-KRAS (G12V)-HiBit-KI cells, compound treatment for 24 hours, class symbols. Put shortly:
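Luminescence from lytic Nano-Glo HiBiT detection with LgBiT read KRAS G12V levels after 24 h compound exposure. Dilutions were 10-point, 3-fold, from a 0.3 mM DMSO stock. Degradation activity was normalised to cells given 0.1% DMSO alone.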

In another assay the target is T3, KRAS (Homo sapiens, UniProt P01116).
T3 construct: endogenous in cells; host or cells: KE39 (KRAS amplified) cells
Put plainly: KRASamp MSD assay. Conditions: KE39 (KRAS amplified) cells, treated with test compounds for 24 hr, MSD readout of KRAS degradation. Put shortly: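 Degradation DC50 derived by curve fitting, with KRAS levels quantified by MSD electrochemiluminescence (capture/detection antibodies, recombinant WT KRAS standard). Lysates prepared from KE39 cells (KRAS amplified) exposed to test compounds for 24 hr.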

Where [1] appears, read: numeric bounds given in place of class symbols.

T2 sequence (P01116 1-188 isoform P01116-2 G12V): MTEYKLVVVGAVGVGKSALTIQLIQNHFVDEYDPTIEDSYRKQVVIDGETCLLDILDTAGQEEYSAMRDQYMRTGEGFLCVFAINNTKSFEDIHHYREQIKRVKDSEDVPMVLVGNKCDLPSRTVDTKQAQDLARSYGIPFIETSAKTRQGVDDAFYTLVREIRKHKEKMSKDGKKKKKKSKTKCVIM
T3 sequence (P01116 1-188 isoform P01116-2): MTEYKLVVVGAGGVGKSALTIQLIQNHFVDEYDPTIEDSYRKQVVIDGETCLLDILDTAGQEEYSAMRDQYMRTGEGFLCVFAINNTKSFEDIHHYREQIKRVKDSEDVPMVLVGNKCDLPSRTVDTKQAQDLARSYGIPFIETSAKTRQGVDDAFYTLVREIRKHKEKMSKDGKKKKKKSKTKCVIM
T1 sequence (P01116 1-188 isoform P01116-2 G12D): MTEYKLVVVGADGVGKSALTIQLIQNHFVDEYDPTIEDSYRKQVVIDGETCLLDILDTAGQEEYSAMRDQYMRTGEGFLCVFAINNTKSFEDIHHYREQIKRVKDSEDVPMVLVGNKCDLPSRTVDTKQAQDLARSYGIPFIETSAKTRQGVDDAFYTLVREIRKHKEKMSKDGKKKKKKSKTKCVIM

For the compound `CCc1c(F)ccc2cc(O)cc(-c3ncc4c(N5CCC[C@@](C)(O)C5)nc(OC[C@]56CCCN5[C@H](COC(=O)N5CCC(c7cccc8c7n(C)c(=O)n8C7CCC(=O)NC7=O)CC5)CC6)nc4c3F)c12` (stereo partly drawn) [Compound 310, ((3S,7aR)-7a-(((7-(8-ethyl-7-fluoro-3-hydroxynaphthalen-1-yl)-8-fluoro-4-((R)-3-hydroxy-3-methylpiperidin-1-yl)pyrido[4,3-d]pyrimidin-2-yl)oxy)methyl)hexahydro-1H-pyrrolizin-3-yl)methyl 4-(1-(2,6-dioxopiperidin-3-yl)-3-methyl-2-oxo-2,3-dihydro-1H-benzo[d]imidazol-4-yl)piperidine-1-carboxylate], the figures for the DC50 on KRAS G12D (setting [1]), on KRAS G12V and on KRAS were above 100 nM, above 100 nM and 1 to 10 nM, respectively.

In the case of `CCc1c(F)ccc2cc(O)cc(-c3ncc4c(N5CCC[C@@](C)(O)C5)nc(OC[C@@]56CCCN5[C@H](COC(=O)N5CCC(N7CCC(Cc8ccc9c(c8)n(C)c(=O)n9C8CCC(=O)NC8=O)CC7)CC5)CC6)nc4c3F)c12` (stereo partly drawn) [Compound 430, ((3S,7aS)-7a-(((7-(8-ethyl-7-fluoro-3-hydroxynaphthalen-1-yl)-8-fluoro-4-((R)-3-hydroxy-3-methylpiperidin-1-yl)pyrido[4,3-d]pyrimidin-2-yl)oxy)methyl)hexahydro-1H-pyrrolizin-3-yl)methyl 4-((1-(2,6-dioxopiperidin-3-yl)-3-methyl-2-oxo-2,3-dihydro-1H-benzo[d]imidazol-5-yl)methyl)-[1,4′-bipiperidine]-1′-carboxylate], the DC50 at KRAS G12D (class symbols) is below 100 nM; at KRAS G12V it was 10 to 100 nM; on KRAS, 1 to 10 nM.

`CCc1c(F)ccc2cc(O)cc(-c3ncc4c(N5CCC[C@@](C)(O)C5)nc(OC[C@@]56CCCN5[C@H](COc5ccc(CN7CCC(c8ccc9c(c8)n(C)c(=O)n9C8CCC(=O)NC8=O)CC7)cc5)CC6)nc4c3F)c12` (stereo partly drawn) [Compound 458, 3-(5-(1-(4-(((3S,7aS)-7a-(((7-(8-ethyl-7-fluoro-3-hydroxynaphthalen-1-yl)-8-fluoro-4-((R)-3-hydroxy-3-methylpiperidin-1-yl)pyrido[4,3-d]pyrimidin-2-yl)oxy)methyl)hexahydro-1H-pyrrolizin-3-yl)methoxy)benzyl)piperidin-4-yl)-3-methyl-2-oxo-2,3-dihydro-1H-benzo[d]imidazol-1-yl)piperidine-2,6-dione]: the DC50 on KRAS G12D (class symbols) is below 100 nM; on KRAS G12V, 10 to 100 nM; at KRAS, below 1 nM.

Take `Cn1c(=O)n(C2CCC(=O)NC2=O)c2ccc(C3CCN(C4CC5(CCN(C(=O)OC[C@@H]6CC[C@]7(COc8nc(N9CCC[C@@](C)(O)C9)c9cnc(-c%10cc(O)cc%11ccc(F)cc%10%11)cc9n8)CCCN67)CC5)C4)CC3)cc21` (stereo partly drawn) [Compound 474, ((3S,7aS)-7a-(((7-(7-fluoro-3-hydroxynaphthalen-1-yl)-4-((R)-3-hydroxy-3-methylpiperidin-1-yl)pyrido[4,3-d]pyrimidin-2-yl)oxy)methyl)hexahydro-1H-pyrrolizin-3-yl)methyl 2-(4-(1-(2,6-dioxopiperidin-3-yl)-3-methyl-2-oxo-2,3-dihydro-1H-benzo[d]imidazol-5-yl)piperidin-1-yl)-7-azaspiro[3.5]nonane-7-carboxylate]: the DC50 is below 100 nM on KRAS G12D (class symbols), below 10 nM on KRAS G12V and below 1 nM on KRAS.

Take `C#Cc1c(F)ccc2cc(O)cc(-c3ncc4c(N5CCC[C@@](C)(O)C5)nc(OC[C@@]56CCCN5[C@H](COC(=O)N5CC(N7CCC(N8CCC(c9ccc%10c(c9)n(C)c(=O)n%10C9CCC(=O)NC9=O)CC8)CC7)C5)CC6)nc4c3F)c12` (stereo partly drawn) [Compound 322, ((3S,7aS)-7a-(((7-(8-ethynyl-7-fluoro-3-hydroxynaphthalen-1-yl)-8-fluoro-4-((R)-3-hydroxy-3-methylpiperidin-1-yl)pyrido[4,3-d]pyrimidin-2-yl)oxy)methyl)hexahydro-1H-pyrrolizin-3-yl)methyl 3-(4-(1-(2,6-dioxopiperidin-3-yl)-3-methyl-2-oxo-2,3-dihydro-1H-benzo[d]imidazol-5-yl)-[1,4′-bipiperidin]-1′-yl)azetidine-1-carboxylate]: the DC50 on KRAS G12D (setting [1]) is above 100 nM; on KRAS G12V, above 100 nM; on KRAS, at least 10 nM.

On to `C#Cc1c(F)ccc2cc(O)cc(-c3ncc4c(N5CCC[C@@](C)(O)C5)nc(OC[C@@]56CCCN5[C@H](COC(=O)N5CCC(COC7CN(c8ccc9c(c8)n(C)c(=O)n9C8CCC(=O)NC8=O)C7)CC5)CC6)nc4c3F)c12` (stereo partly shown) [Compound 132], for which the values for the DC50 at KRAS G12D (class symbols), at KRAS G12V and at KRAS were below 100 nM, below 10 nM and 1 to 10 nM, respectively.

For `C#Cc1c(F)ccc2cc(O)cc(-c3ncc4c(N5CCC[C@@](C)(O)C5)nc(OC[C@@]56CCCN5[C@H](COC(=O)N5CCC(CC#Cc7ccc8c(c7)n(C)c(=O)n8C7CCC(=O)NC7=O)CC5)CC6)nc4c3F)c12` (stereo partly drawn) [Compound 375, ((3S,7aS)-7a-(((7-(8-ethynyl-7-fluoro-3-hydroxynaphthalen-1-yl)-8-fluoro-4-((R)-3-hydroxy-3-methylpiperidin-1-yl)pyrido[4,3-d]pyrimidin-2-yl)oxy)methyl)hexahydro-1H-pyrrolizin-3-yl)methyl 4-(3-(1-(2,6-dioxopiperidin-3-yl)-3-methyl-2-oxo-2,3-dihydro-1H-benzo[d]imidazol-5-yl)prop-2-yn-1-yl)piperidine-1-carboxylate], the DC50 on KRAS G12D (class symbols) is below 100 nM; at KRAS G12V it was below 10 nM; on KRAS, 1 to 10 nM.

Regarding `CCc1c(F)ccc2cc(O)cc(-c3ncc4c(N5CCC[C@@](C)(O)C5)nc(OC[C@@]56CCCN5[C@H](COC(=O)N5CCC(CN7CCC(c8ccc9c(c8)n(C)c(=O)n9C8CCC(=O)NC8=O)CC7)C5)CC6)nc4c3F)c12` (stereo partly drawn) [Compound 433, ((3S,7aS)-7a-(((7-(8-ethyl-7-fluoro-3-hydroxynaphthalen-1-yl)-8-fluoro-4-((R)-3-hydroxy-3-methylpiperidin-1-yl)pyrido[4,3-d]pyrimidin-2-yl)oxy)methyl)hexahydro-1H-pyrrolizin-3-yl)methyl 3-((4-(1-(2,6-dioxopiperidin-3-yl)-3-methyl-2-oxo-2,3-dihydro-1H-benzo[d]imidazol-5-yl)piperidin-1-yl)methyl)pyrrolidine-1-carboxylate], the figures for the DC50 on KRAS G12D (class symbols), at KRAS G12V and at KRAS were below 100 nM, below 10 nM and 1 to 10 nM, respectively.

Consider `C#Cc1c(F)ccc2cc(O)cc(-c3ccc4c(N5CCC[C@@](C)(O)C5)nc(OCC5(CN6CCN(CC7CCN(c8ccc9c(c8)n(C)c(=O)n9C8CCC(=O)NC8=O)CC7)CC6)CC5)nc4c3F)c12` (stereo partly shown) [Compound 11], for which the DC50 on KRAS G12D (class symbols) is above 300 nM; at KRAS G12V it was below 10 nM; at KRAS it was 1 to 10 nM.

In the case of `C#Cc1c(F)ccc2cc(O)cc(-c3ncc4c(N5CCC[C@@](C)(O)C5)nc(OC[C@@]56CCCN5[C@H](COC(=O)N5CC7(CC(CN8CCC(c9ccc%10c(c9)n(C)c(=O)n%10C9CCC(=O)NC9=O)CC8)C7)C5)CC6)nc4c3F)c12` (stereo partly drawn) [Compound 418, ((3S,7aS)-7a-(((7-(8-ethynyl-7-fluoro-3-hydroxynaphthalen-1-yl)-8-fluoro-4-((R)-3-hydroxy-3-methylpiperidin-1-yl)pyrido[4,3-d]pyrimidin-2-yl)oxy)methyl)hexahydro-1H-pyrrolizin-3-yl)methyl 6-((4-(1-(2,6-dioxopiperidin-3-yl)-3-methyl-2-oxo-2,3-dihydro-1H-benzo[d]imidazol-5-yl)piperidin-1-yl)methyl)-2-azaspiro[3.3]heptane-2-carboxylate], the DC50 is below 100 nM at KRAS G12D (class symbols), below 10 nM at KRAS G12V and 1 to 10 nM on KRAS.

Take `CCc1c(F)ccc2cc(O)cc(-c3ncc4c(N5CCC[C@@](C)(O)C5)nc(OC[C@@]56CCCN5[C@H](COC(=O)N5CCC(CN7CCC(c8cc9c(cc8F)n(C8CCC(=O)NC8=O)c(=O)n9C)CC7)CC5)CC6)nc4c3F)c12` (stereo partly drawn) [Compound 101, ((35,7aS)-7a-(((7-(8-Ethyl-7-fluoro-3-hydroxynaphthalen-1-yl)-8-fluoro-4-((R)-3-hydroxy-3-methylpiperidin-1-yl)pyrido[4,3-d]pyrimidin-2-yl)oxy)methyl)hexahydro-1H-pyrrolizin-3-yl)methyl 4-((4-(1-(2,6-dioxopiperidin-3-yl)-6-fluoro-3-methyl-2-oxo-2,3-dihydro-1H-benzo[d]imidazol-5-yl)piperidin-1-yl)methyl) piperidine-1-carboxylate]: the DC50 on KRAS G12D (class symbols) is below 100 nM; on KRAS G12V, below 10 nM; on KRAS it was below 1 nM. The same compound displayed a Dmax on KRAS G12D (class symbols) above 50%.

The values above are taken from US12599672B2, “KRAS proteolysis targeting chimeras” (PAQ Therapeutics Inc., priority 2023, dated 2026).
